Experimental data taken from patent US10710986B2, “PD-1/PD-L1 inhibitors” (Gilead Sciences, Inc., priority 2018, dated 2020).

Molecular target: PD-1/PD-L1 (Homo sapiens (Human), UniProt Q9NZQ7)
Experiment: PD-1/PD-L1 biochemical protein-protein interaction assay (ALPHA)
Conditions: 0.3 nM His tagged PD-L1, 2.5 nM biotinylated Fc-PD-1, 60 minutes at 25° C., read-out: IC50 PD-L1-PD1

Chain of PD-1/PD-L1 (Q9NZQ7 19-238): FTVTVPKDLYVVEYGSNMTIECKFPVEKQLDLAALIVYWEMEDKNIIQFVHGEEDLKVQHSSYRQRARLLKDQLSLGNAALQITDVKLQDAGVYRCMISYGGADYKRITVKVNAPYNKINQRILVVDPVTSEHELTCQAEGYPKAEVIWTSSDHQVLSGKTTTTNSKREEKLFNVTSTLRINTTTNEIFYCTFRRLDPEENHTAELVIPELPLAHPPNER

| Compound | IC50 |
| --- | --- |
| CN(C)c1nc(-c2cccc(-c3cccc(-c4cnc(CNC[C@@H]5CCC(=O)N5)c(Cl)n4)c3Cl)c2Cl)cnc1CNC[C@@H]1CCC(=O)N1 [compound 106] | 0.36 nM |
| COc1nc(-c2cccc(-c3cccc(-c4cnc(CN[C@H](CO)C(C)C)c(OC)n4)c3Cl)c2Cl)cnc1CNC[C@@H]1CCC(=O)N1 [compound 257] | 0.426 nM |
| COc1nc(-c2cccc(-c3cccc(-c4cnc(CN5CCN(C6CC6)CC5)c(OC)n4)c3Cl)c2Cl)cnc1CNC[C@@H]1CCC(=O)N1 [compound 269] | 0.23 nM |
| COc1nc(-c2cccc(-c3cccc(-c4cnc(CNC5(c6cccnc6)CC5)c(OC)n4)c3Cl)c2Cl)cnc1CNC[C@@H]1CCC(=O)N1 [compound 424] | 0.617 nM |
| COc1nc(-c2cccc(-c3cccc(-c4cnc(CNC[C@@H](C)O)c(OC)n4)c3Cl)c2Cl)cnc1CNC[C@@H]1CCC(=O)N1 [compound 345] | 0.313 nM |
| CCc1nc(-c2cccc(-c3cccc(-c4cnc(CN5CC6(CNC(=O)C6)C5)c(CC)n4)c3Cl)c2Cl)cnc1CN1CC2(CNC(=O)C2)C1 [compound 83] | 0.56 nM |
| COC1CN(Cc2ncc(-c3cccc(-c4cccc(-c5cnc(CN6CC(OC)C6)c(C)n5)c4Cl)c3Cl)nc2C)C1 [compound 92] | 1.03 nM |
| COc1nc(-c2cccc(-c3cccc(-c4cnc(CN5CC[C@H](O)C5)c(OC)n4)c3Cl)c2Cl)cnc1CN1CC[C@H](O)C1 [compound 132] | 0.753 nM |
| COc1nc(-c2cccc(-c3cccc(-c4cnc(CN5CCN[C@H](C6CC6)C5)c(OC)n4)c3Cl)c2Cl)cnc1CNC[C@@H]1CCC(=O)N1 [compound 259] | 0.273 nM |
| COc1nc(-c2cccc(-c3cccc(-c4cnc(CN5CCC(C(=O)N(C)C)C5)c(OC)n4)c3Cl)c2Cl)cnc1CNC[C@@H]1CCC(=O)N1 (stereo partly drawn) [compound 534] | 0.299 nM |
| COc1nc(-c2cccc(-c3cccc(-c4cnc(CN[C@H]5C[C@H]5CO)c(OC)n4)c3Cl)c2Cl)cnc1CNC[C@@H]1CCC(=O)N1 [compound 268] | 0.352 nM |
| COc1nc(-c2cccc(-c3cccc(-c4cnc(CNC[C@@H]5CCC(=O)N5)c(OC)n4)c3Cl)c2Cl)ccc1CNCc1ccc2[nH]c(C)cc2c1 [compound 155] | 1.65 nM |
| COc1nc(-c2cccc(-c3cccc(-c4cnc(CNC[C@@H]5CCC(=O)N5)c(OC)n4)c3Cl)c2Cl)cnc1CNCCc1ccccn1 [compound 417] | 0.196 nM |
| CNC(=O)[C@@H]1CCCN1Cc1ncc(-c2cccc(-c3cccc(-c4cnc(CNC[C@@H]5CCC(=O)N5)c(OC)n4)c3Cl)c2Cl)nc1OC [compound 19] | 0.199 nM |
| COc1nc(-c2cccc(-c3cccc(-c4cnc(CNCC(C)(C)NC(C)=O)c(OC)n4)c3Cl)c2Cl)cnc1CNC[C@@H]1CCC(=O)N1 [compound 376] | 0.208 nM |
| COC[C@H]1C[C@@H](NCc2ncc(-c3cccc(-c4cccc(-c5cnc(CNC[C@@H]6CCC(=O)N6)c(OC)n5)c4Cl)c3Cl)nc2OC)C1 [compound 221] | 0.227 nM |
| CCN(CCc1cn[nH]c1)Cc1ncc(-c2cccc(-c3cccc(-c4cnc(CNC[C@@H]5CCC(=O)N5)c(OC)n4)c3Cl)c2Cl)nc1OC [compound 48] | 0.822 nM |
| CNc1nc(-c2cccc(-c3cccc(-c4cnc(CNC[C@@H]5CCC(=O)N5)c(NC)n4)c3Cl)c2Cl)cnc1CNC[C@@H]1CCC(=O)N1 [compound 80] | 0.36 nM |
| COC1CN(Cc2ncc(-c3cccc(-c4cccc(-c5cnc(CN6CC(OC)C6)c(Cl)n5)c4Cl)c3Cl)nc2Cl)C1 [compound 107] | 1.54 nM |
| COC1CN(Cc2ncc(-c3cccc(-c4cccc(-c5cnc(CN6CC(OC)C6)c(N(C)C)n5)c4Cl)c3Cl)nc2Cl)C1 [compound 98] | 0.647 nM |
| COc1nc(-c2cccc(-c3cccc(-c4cnc(CN5CC[C@@H](O)C5)c(OC)n4)c3Cl)c2Cl)cnc1CN [compound 587] | 0.515 nM |
| COc1nc(-c2cccc(-c3cccc(-c4cnc(CN5CC[C@@H](C)[C@@H](O)C5)c(OC)n4)c3Cl)c2Cl)cnc1CNC[C@@H]1CCC(=O)N1 [compound 229] | 0.229 nM |
| COc1nc(-c2cccc(-c3cccc(-c4cnc(CN5CC6(CNC(=O)C6)C5)c(OC)n4)c3Br)c2F)cnc1CN1CC2(CNC(=O)C2)C1 [compound 393] | 2.23 nM |
| COc1nc(-c2cccc(-c3cccc(-c4cnc(CNCCO)c(OC)n4)c3Cl)c2Cl)cnc1CNCCO [compound 140] | 0.26 nM |
| COc1nc(-c2cccc(-c3cccc(-c4cnc(CN5CC[C@@H](O)[C@@H](F)C5)c(OC)n4)c3Cl)c2Cl)cnc1CNC[C@@H]1CCC(=O)N1 [compound 278] | 0.538 nM |

Stronger by IC50, values ahead:

| IC50 | Compound |
| --- | --- |
| 0.18 nM | COc1nc(-c2cccc(-c3cccc(-c4cnc(CNC[C@H]5CCC[C@@H]5O)c(OC)n4)c3Cl)c2Cl)cnc1CNC[C@@H]1CCC(=O)N1 [compound 54] |
| 0.175 nM | CNCc1ncc(-c2cccc(-c3cccc(-c4cnc(CNC)c(OC)n4)c3Cl)c2Cl)nc1OC [compound 402] |
| 0.17 nM | COc1nc(-c2cccc(-c3cccc(-c4cnc([C@H](C)N)c(OC)n4)c3Cl)c2Cl)cnc1CNC[C@@H]1CCC(=O)N1 [compound 316] |
| 0.169 nM | COc1nc(-c2cccc(-c3cccc(-c4cnc(CNC[C@@H]5CCC(=O)N5)c(OC)n4)c3Cl)c2F)ccc1CNC[C@@H]1CCC(=O)N1 [compound 498] |
| 0.164 nM | COc1nc(-c2cccc(-c3cccc(-c4cnc(CN[C@H]5C[C@](C)(O)C5)c(OC)n4)c3Cl)c2Cl)cnc1CN[C@H]1C[C@](C)(O)C1 [compound 561] |
| 0.14 nM | COc1nc(-c2cccc(-c3cccc(-c4cnc(CNC5CC(CC(N)=O)C5)c(OC)n4)c3Cl)c2Cl)cnc1CNC[C@@H]1CCC(=O)N1 (stereo partly drawn) [compound 217] |
| 0.135 nM | COc1nc(-c2cccc(-c3cccc(-c4cnc(CN5CC(O)C5)c(OC)n4)c3Cl)c2F)cnc1CN1CC(O)C1 [compound 2] |
| 0.129 nM | COc1nc(-c2cccc(-c3cccc(-c4cnc(CN5CCC6(CCC(=O)N6)CC5)c(OC)n4)c3Cl)c2Cl)cnc1CNC[C@H]1CCC(=O)N1 [compound 203] |
| 0.12 nM | COC(=O)NC1CCN(Cc2ncc(-c3cccc(-c4cccc(-c5cnc(CNC[C@@H]6CCC(=O)N6)c(OC)n5)c4Cl)c3Cl)nc2OC)C1 (stereo partly drawn) [compound 188] |
| 0.113 nM | COc1nc(-c2cccc(-c3cccc(-c4cnc(CNC5CCN(C(C)=O)CC5)c(OC)n4)c3Cl)c2Cl)cnc1CNC[C@H]1CCC(=O)N1 [compound 206] |
| 0.106 nM | COc1nc(-c2cccc(-c3cccc(-c4cnc(CN5CC[C@H](C(N)=O)C5)c(OC)n4)c3Cl)c2Cl)cnc1CNC[C@@H]1CCC(=O)N1 [compound 517] |
| 0.098 nM | COc1nc(-c2cccc(-c3cccc(-c4cnc(CNC(C)(C)CO)c(OC)n4)c3Cl)c2Cl)cnc1CNC[C@@H]1CCC(=O)N1 [compound 377] |
| 0.098 nM | COc1nc(-c2cccc(-c3cccc(-c4cnc(CN5CC(C(C)(C)O)C5)c(OC5CC5)n4)c3Cl)c2Cl)ccc1CN1CC(C(C)(C)O)C1 [compound 635] |
| 0.09 nM | COc1nc(-c2cccc(-c3cccc(-c4cnc(CN5CC(O)(CO)C5)c(OC)n4)c3Cl)c2Cl)cnc1CNC[C@@H]1CCC(=O)N1 [compound 253] |
| 0.09 nM | CNC(=O)NC1CN(Cc2ncc(-c3cccc(-c4cccc(-c5cnc(CNC[C@@H]6CCC(=O)N6)c(OC)n5)c4Cl)c3Cl)nc2OC)C1 [compound 557] |
| 0.089 nM | COc1nc(-c2cccc(-c3cccc(-c4cnc(CNCC5CN(S(C)(=O)=O)C5)c(OC)n4)c3Cl)c2Cl)cnc1CNCC1CN(S(C)(=O)=O)C1 [compound 546] |

| IC50 | Compound |
| --- | --- |
| 0.088 nM | COc1nc(-c2cccc(-c3cccc(-c4cnc(CN5CC6(CCOC6)C5)c(OC)n4)c3Cl)c2Cl)cnc1CNC[C@@H]1CCC(=O)N1 [compound 234] |
| 0.087 nM | COc1nc(-c2cccc(-c3cccc(-c4cnc(CN[C@H]5CC[C@@H](C#N)C5)c(OC)n4)c3Cl)c2Cl)cnc1CNC[C@@H]1CCC(=O)N1 [compound 458] |
| 0.086 nM | COc1nc(-c2cccc(-c3cccc(-c4cnc(CN5CC6(CNC(=O)C6)C5)c(OC)n4)c3Cl)c2Cl)ccc1CN1CC2(CNC(=O)C2)C1 [compound 437] |
| 0.084 nM | COc1nc(-c2cccc(-c3cccc(-c4cnc(CNC[C@@H]5CCC(=O)N5)c(OC)n4)c3Cl)c2Cl)ccc1CN1CC(C)(CO)C1 [compound 156] |
| 0.084 nM | COc1nc(-c2cccc(-c3cccc(-c4cnc(CN[C@H]5C[C@](O)(CF)C5)c(OC)n4)c3Cl)c2Cl)cnc1CNC[C@@H]1CCC(=O)N1 [compound 432] |
| 0.079 nM | COc1nc(-c2cccc(-c3cccc(-c4cnc(CNC5CCCN(C(C)=O)C5)c(OC)n4)c3Cl)c2Cl)cnc1CNC[C@H]1CCC(=O)N1 (stereo partly drawn) [compound 205] |
| 0.074 nM | COc1nc(-c2cccc(-c3cccc(-c4cnc(CN5CC6(CNC(=O)C6)C5)c(OC)n4)c3Cl)c2Cl)cnc1CN1CC(C)(O)C1 [compound 444] |
| 0.07 nM | COc1nc(-c2cccc(-c3cccc(-c4cnc(CN5CCN[C@H](C)C5)c(OC)n4)c3Cl)c2Cl)cnc1CNC[C@@H]1CCC(=O)N1 [compound 251] |
| 0.064 nM | CNc1nc(-c2cccc(-c3cccc(-c4cnc(CNC[C@@H]5CCC(=O)N5)c(OC)n4)c3Cl)c2Cl)cnc1CN1CC2(C1)CN(C(C)=O)C2 [compound 488] |
| 0.064 nM | COc1nc(-c2cccc(-c3cccc(-c4cnc(C5=NCCN5)c(OC)n4)c3Cl)c2Cl)cnc1C1=NCCN1 [compound 141] |
| 0.064 nM | COc1nc(-c2cccc(-c3cccc(-c4cnc5c(CN6CC7(CNC(=O)C7)C6)cn(C)c5n4)c3Cl)c2Cl)cnc1CN1CC2(CNC(=O)C2)C1 [compound 607] |
| 0.064 nM | COc1nc(-c2cccc(-c3cccc(-c4cnc(CN5CC[C@H](O)[C@@H]5C)c(OC)n4)c3Cl)c2Cl)cnc1CNC[C@@H]1CCC(=O)N1 [compound 516] |
| 0.064 nM | COc1nc(-c2cccc(-c3cccc(-c4cnc(CN5CCC(N6CCNC6=O)C5)c(OC)n4)c3Cl)c2Cl)cnc1CNC[C@@H]1CCC(=O)N1 (stereo partly drawn) [compound 528] |
| 0.064 nM | COc1nc(-c2cccc(-c3cccc(-c4cnc(CN5CCC6(CCC(=O)N6)C5)c(OC)n4)c3Cl)c2Cl)cnc1CN1CCC2(CCC(=O)N2)C1 (stereo not drawn) [compound 537] |
| 0.064 nM | COc1nc(-c2cccc(-c3cccc(-c4cnc(CNC[C@@H]5CCC(=O)N5)c(OC)n4)c3Cl)c2Cl)cnc1CNCC1CN(S(C)(=O)=O)C1 [compound 547] |
| 0.064 nM | COc1nc(-c2cccc(-c3cccc(-c4cnc(C5=NC[C@@H](C)N5)c(OC)n4)c3Cl)c2Cl)cnc1CNC[C@@H]1CCC(=O)N1 [compound 647] |
